Activity calls are given as the source filed them. The calls are words filed in the database; no cut-off is given here.
Experiments:
[1] = Drug accumulation in tumor of female BALB/c mouse bearing mouse 4T1 cells assessed as increase in fluorescence intensity at 2.5 mg/kg, iv measured after 4 hrs by fluorescence imaging analysis; assay type: ADME, organism-based, Neoplasm; settings: in vivo
[2] = Toxicity in female BALB/c mouse bearing mouse 4T1 cells assessed as damage in lung at 2.5 mg/kg, iv pretreated for 4 hrs followed by exposure to laser irradiation of 808 nm for 5 mins on every 2 days treated for 15 days by H and E staining based analysis; assay type: organism-based; settings: in vivo, 360 h, time 15 day
[3] = Toxicity in female BALB/c mouse bearing mouse 4T1 cells assessed as damage in spleen at 2.5 mg/kg, iv pretreated for 4 hrs followed by exposure to laser irradiation of 808 nm for 5 mins on every 2 days treated for 15 days by H and E staining based analysis; assay type: organism-based; settings: in vivo, 360 h, time 15 day
4T1 [4] = test: Antitumor activity against mouse 4T1 cells implanted in female BALB/c mouse assessed as cellular damage at 2.5 mg/kg, iv pretreated for 4 hrs followed by exposure to laser irradiation of 808 nm for 5 mins on every 2 days treated for 15 days by H and E staining based analysis; assay type: functional, organism-based; settings: time 15.0 day
4T1 [5] = test: Antitumor activity against mouse 4T1 cells implanted in female BALB/c mouse assessed as cellular damage at 2.5 mg/kg, iv treated on every 2 days treated for 15 days by H and E staining based analysis; assay type: functional, organism-based; settings: time 15.0 day
[6] = Toxicity in female BALB/c mouse bearing mouse 4T1 cells assessed as body weight at 2.5 mg/kg, iv pretreated for 4 hrs followed by exposure to laser irradiation of 808 nm for 5 mins on every 2 days treated for 15 days; assay type: organism-based; settings: in vivo, 360 h, time 15 day
4T1 [7] = test: Antitumor activity against mouse 4T1 cells implanted in female BALB/c mouse assessed as nuclei rupture at 2.5 mg/kg, iv pretreated for 4 hrs followed by exposure to laser irradiation of 808 nm for 5 mins on every 2 days treated for 15 days by H and E staining based analysis; assay type: functional, organism-based; settings: time 15.0 day
[8] = Biodistribution in liver of female BALB/c mouse bearing mouse 4T1 cells at 2.5 mg/kg, iv measured up to 12 hrs by fluorescence imaging analysis; assay type: ADME, organism-based; settings: in vivo
Mus musculus [9] = test: Photothermal effect in female BALB/c mouse bearing mouse 4T1 cells at approximately 50 degreeC at 2.5 mg/kg, iv pretreated for 4 hrs followed by exposure to laser irradiation of 808 nm for 5 mins; assay type: functional, organism-based; settings: time 245.0 min
4T1 [10] = test: Antitumor activity against mouse 4T1 cells implanted in female BALB/c mouse assessed as necrotic tissue at 2.5 mg/kg, iv pretreated for 4 hrs followed by exposure to laser irradiation of 808 nm for 5 mins on every 2 days treated for 15 days by H and E staining based analysis; assay type: functional, organism-based; settings: time 15.0 day
4T1 [11] = test: Photothermal cytotoxicity against mouse 4T1 cells assessed as survival rate at 3.12 uM preincubated for 4 hrs followed by exposure to laser irradiation of 808 nm for 2 mins and subsequent incubation for 20 hrs by MTT assay relative to control; assay type: functional; settings: 4T1, light or radiation study, 24.03 h, time 1442 min, read-out: Survival
[12] = Toxicity in ICR mouse bearing mouse H22 cells assessed as damage in lung at 2.5 mg/kg, iv pretreated for 4 hrs followed by exposure to laser irradiation of 808 nm for 5 mins on every 2 days treated for 15 days by H and E staining based analysis; assay type: organism-based; settings: in vivo, 360 h, time 15 day
HepG2 = test: Cytotoxicity against human HepG2 cells assessed as cell viability under dark condition up to 25 uM incubated for 24 hrs by MTT assay relative to control; assay type: functional
4T1 [13] = test: Antitumor activity against mouse 4T1 cells implanted in female BALB/c mouse assessed as decrease in tumor size at 2.5 mg/kg, iv pretreated for 4 hrs followed by exposure to laser irradiation of 808 nm for 5 mins on every 2 days treated for 15 days; assay type: functional, organism-based; settings: time 15.0 day
4T1 [14] = test: Antitumor activity against mouse 4T1 cells implanted in female BALB/c mouse assessed as decrease in tumor volume at 2.5 mg/kg, iv treated for 4 hrs on every 2 days treated for 15 days; assay type: functional, organism-based; settings: time 15.0 day
Mitochondrial membrane = test: Inhibition of mitochondrial membrane potential in human HepG2 cells assessed as green fluorescence at 3.12 uM preincubated for 4 hrs followed by exposure to laser irradiation of 808 nm for 2 mins and subsequent incubation for 20 hrs by JC-1 dye based analysis; assay type: cell membranes; settings: time 1442.0 min
4T1 [15] = test: Antitumor activity against mouse 4T1 cells implanted in female BALB/c mouse assessed as tumor growth inhibition at 2.5 mg/kg, iv pretreated for 4 hrs followed by exposure to laser irradiation of 808 nm for 5 mins on every 2 days treated for 15 days; assay type: functional, organism-based; settings: time 15.0 day
[16] = Toxicity in female BALB/c mouse bearing mouse 4T1 cells assessed as body weight at 1.8 mg/kg, iv pretreated for 4 hrs followed by exposure to laser irradiation of 808 nm for 5 mins on every 2 days treated for 15 days; assay type: organism-based; settings: in vivo, 360 h, time 15 day
[17] = Toxicity in female BALB/c mouse bearing mouse 4T1 cells assessed as damage in heart at 1.8 mg/kg, iv pretreated for 4 hrs followed by exposure to laser irradiation of 808 nm for 5 mins on every 2 days treated for 15 days by H and E staining based analysis; assay type: organism-based; settings: in vivo, 360 h, time 15 day
[18] = Drug accumulation in tumor of female BALB/c mouse bearing mouse 4T1 cells at 1.8 mg/kg, iv measured up to 12 hrs by fluorescence imaging analysis; assay type: ADME, organism-based, Neoplasm; settings: in vivo
[19] = Drug excretion in female BALB/c mouse bearing mouse 4T1 cells at 1.8 mg/kg, iv measured up to 12 hrs by fluorescence imaging analysis; assay type: ADME, organism-based; settings: in vivo
[20] = Biodistribution in liver of female BALB/c mouse bearing mouse 4T1 cells at 1.8 mg/kg, iv measured up to 12 hrs by fluorescence imaging analysis; assay type: ADME, organism-based; settings: in vivo
[21] = Toxicity in ICR mouse bearing mouse H22 cells assessed as damage in heart at 1.8 mg/kg, iv pretreated for 4 hrs followed by exposure to laser irradiation of 808 nm for 5 mins on every 2 days treated for 15 days by H and E staining based analysis; assay type: organism-based; settings: in vivo, 360 h, time 15 day
Mus musculus [22] = test: Photothermal effect in female BALB/c mouse bearing mouse 4T1 cells at 42 degreeC at 1.8 mg/kg, iv pretreated for 4 hrs followed by exposure to laser irradiation of 808 nm for 5 mins; assay type: functional, organism-based; settings: time 245.0 min
[23] = Toxicity in ICR mouse bearing mouse H22 cells assessed as damage in liver at 1.8 mg/kg, iv pretreated for 4 hrs followed by exposure to laser irradiation of 808 nm for 5 mins on every 2 days treated for 15 days by H and E staining based analysis; assay type: organism-based; settings: in vivo, 360 h, time 15 day
[24] = Toxicity in ICR mouse bearing mouse H22 cells assessed as damage in kidney at 1.8 mg/kg, iv pretreated for 4 hrs followed by exposure to laser irradiation of 808 nm for 5 mins on every 2 days treated for 15 days by H and E staining based analysis; assay type: organism-based; settings: in vivo, 360 h, time 15 day
[25] = Toxicity in ICR mouse bearing mouse H22 cells assessed as damage in spleen at 1.8 mg/kg, iv pretreated for 4 hrs followed by exposure to laser irradiation of 808 nm for 5 mins on every 2 days treated for 15 days by H and E staining based analysis; assay type: organism-based; settings: in vivo, 360 h, time 15 day
4T1 [26] = test: Antitumor activity against mouse 4T1 cells implanted in female BALB/c mouse assessed as cellular damage at 1.8 mg/kg, iv treated on every 2 days treated for 15 days by H and E staining based analysis; assay type: functional, organism-based; settings: time 15.0 day

Structure (SMILES): COCCOCCOCCN1/C(=C/C=C/C(=C/C=C/C2=[N+](CCOCCOCCOC)c3ccccc3C2(C)C)C(=O)OC)C(C)(C)c2ccccc21.[I-]
- Drug uptake [1]: Active
- Activity [2]: Non-toxic
- Activity [3]: Non-toxic
- Activity (4T1 [4]): Active
- Activity (4T1 [5]): Not active; Minor Cell Damage Was Observed
- Activity [6]: 18 g
- Activity (4T1 [7]): Active
- Drug uptake [8]: Active
- Activity (Mus musculus [9]): Active; Compound Exhibited Superior Effect Among Tested Compounds
- Activity (4T1 [10]): Active
- viability at 3.12 µM (4T1 [11]): 36%
- Activity [12]: Non-toxic
- Activity (HepG2): 55%
- Activity (4T1 [13]): Active
- Activity (4T1 [14]): inactive
- inhibition (Mitochondrial membrane): Active
- inhibition (4T1 [15]): Active

Structure (SMILES): COC(=O)C(=C\C=C\C1=[N+](C)c2ccccc2C1(C)C)/C=C/C=C1/N(C)c2ccccc2C1(C)C.[I-]
- Activity [16]: 18 g
- Activity [17]: Non-toxic
- Drug uptake [18]: Active
- Drug excretion [19]: Active
- Drug uptake [20]: Active
- Activity [21]: Non-toxic
- Activity (Mus musculus [22]): Active
- Activity [23]: Non-toxic
- Activity [24]: Non-toxic
- Activity [25]: Non-toxic
- Activity (4T1 [26]): Not active; Minor Cell Damage Was Observed

From ChEMBL document CHEMBL6182861, “Structural modification of heptamethine indocyanine dyes with improved aqueous solubility and stability for photothermal therapy” (Eur J Med Chem, 2025)
